Test results reported in patent US8084593B2, “Polynucleotide encoding a TRIM-Cyp polypeptide, compositions thereof, and methods of using same” (The Trustees of Columbia University in the City of New York, priority 2004, dated 2011).
“Also recorded” adds a separate entry of the source.

Legend:
HIV-1NL-GFP = format: cell-based, human immunodeficiency virus type 1; details: for HIV-1 cDNA synthesis (Southern blot) / HIV-1 infection (GFP-positive cells by FACS): TE671 cells; for HIV-1 cDNA synthesis (Southern blot): 16 h after infection; for HIV-1 infection (GFP-positive cells by FACS): LPCX vectors
Description: FIG. 6. […] LPCX-based retroviral vectors were used to transduce the indicated genes into human TE671 cells. Vect, Cyp, TS, TC and T5rh designate, respectively, Vector control, owl monkey CypA, TRIMStop, TRIMCyp, and TRIM5αrh. […] One twentieth of the cells were maintained in culture for another day and used to determine the percentage of GFP-positive cells by FACS (bottom of the figure). Total DNA was extracted from the remainder of the cells 16 h after infection, and 5 μg of each DNA sample was analyzed by Southern blotting. The positions of the linear, 1-LTR, and 2-LTR HIV-1 cDNA species are indicated on the left. “Total” DNA refers to a band specific to all HIV-1 cDNA forms, including the integrated DNA.
We transduced human rhabdomyosarcoma TE671 cells (45) with previously described LPCX vectors (reference 5, see also Example 1) bearing cDNAs for TRIM5αrh, TRIMCyp, or owl monkey CypA. Cells were also transduced with a vector expressing TRIMStop, a truncated version of TRIMCyp lacking the CypA domain (see Example 1). Pools of transduced cells were selected in puromycin and then assessed for susceptibility to infection with HIV-1NL-GFP (32). […] We monitored the percentage of infected (GFP-expressing) cells by fluorescence-activated cell sorting (FACS) and the synthesis of viral cDNA in the infected cells using a Southern blot designed to detect full-length, linear viral cDNA and circular viral cDNAs that form in the nucleus (31, 32, 47).

N-MLV [1] = test: N-MLV / B-MLV GFP vector infection of transduced TE671 cells, FACS; format: cell-based, murine leukemia virus; details: for N-MLV replication defect (N-tropic restriction by endogenous TRIM5αhu) in cells expressing the construct: TE671 cells, control cells: B-MLV ˜200-fold more infectious than N-MLV
Description: (§1) FIGS. 7a-7c. […] (a) TE671 cells expressing the indicated LPCX derived constructs were infected with GFP-expressing B-MLV and N-MLV vectors at multiple doses. Cells were infected in the presence or absence of As2O3 (3 μM). Two days later, the percentage of infected cells was determined by FACS. (b) OMK cells were transduced with MIG (Vect) or with MIG-TRIM5αhu (T5hu) and challenged with DsRed-expressing N-MLV or B-MLV vectors. Two days later, the percentage of infected cells was determined by FACS.
FIGS. 8a-8c. Effect of TRIMStop on TRIM5αhu antiviral activity. (a) TE671-Vector (Vector) cells and TE671-TRIMStop cells were infected with HIV-1NL-GFP (left panel) or with N- and B-MLV (right panel). Two days later, the percentage of infected (GFP expressing) cells was determined by FACS. (b) Total RNA was prepared from TE671-Vector (Vect), TE671-TRIMCyp (TC), and TE671-TRIMStop (TS), and RT-PCR was used to detect endogenous TRIM5α or TRIMCyp/TRIMStop. RT was performed in the presence (+) or absence (−) of reverse transcriptase. (c) 293T cells were transfected with LPCX (Vect), LPCX-TRIMCyp (TC), or LPCX-TRIMStop (TS), and Western blotting was performed using an antibody specific to TRIM5.
Next, we analyzed MLV replication in TE671-TRIM5αrh, TE671-TRIMCyp, and the control TE671-vector cells.

HIV-1 [2] = format: cell-based, human immunodeficiency virus type 1
Description: (§2) HIV-DsRed and HIV-GFP vectors were produced in 293T cells by co-transfection of CSGW or CSRW with p8.9NΔSB (wild type or G89V mutant) and pMD.G, also at 5:5:1 ratio. HIV/Env-/GFP and SIV/Env-/GFP viruses were produced by cotransfection of the wild type or G89V HIV/Env-/GFP plasmids with pMD.G at a 10:1 ratio. All vectors and viruses were harvested 48 h post-transfection, filtered (0.45-μm filter, Pall Acrodisc), aliquoted, and stored at −80° C. Stocks were normalized by reverse transcriptase activity or p24 ELISA (8).
(§3) Infection assays—Cells were assayed by flow cytometry 48 to 72 h post-infection to determine the percentage of cells that were GFP-positive (FL-1) or DsRed-positive (FL-2). Cells transduced with pMIG vectors and infected with HIV-DsRed were gated to limit the analysis to GFP-positive cells.

CAp30 from B-MLV virions = test: CA pull-out of B-MLV virions with GST-TRIM5 fusions; format: binding, murine leukemia virus; details: GST fusion produced in 293T cells, purified virions
CAp30 from N-MLV virions = test: CA pull-out of N-MLV virions with GST-TRIM5 fusions; format: binding, murine leukemia virus; details: GST fusion produced in 293T cells, purified virions
N-MLV [3] = test: N-MLV DsRed vector challenge of OMK cells transduced with MIG-TRIM5αhu; format: cell-based, murine leukemia virus
Description: as §1
(§4) We also performed the reciprocal experiment, transducing owl monkey OMK cells with TRIM5αhu and challenging them with MLV or HIV-1.

B-MLV = B-MLV DsRed vector challenge of OMK cells transduced with MIG-TRIM5αhu; format: cell-based, murine leukemia virus
Description: as §1, §4

HIV-1 [4] = test: HIV-1-derived CSRW vector challenge of OMK/MIG and OMK/MIG-T5hu cells; format: cell-based, human immunodeficiency virus type 1; details: OMK cells expressing TRIM5αhu
Description: as §1, §4

HIV-1 [5] = tested on: HIV-1
Description: (§5) FIGS. 3a-3e. […] WT, wild type. HeLa cells (d) or Rat2 cells (e) transduced with the indicated cDNAs were infected with HIV-1.
as §2
(§6) Generation of stable cell lines—To generate stable RNAi knockdown lines, 1 ml of pMH vector-containing media was pelleted onto OMK cells (1,200 g for 72 min) in 12-well plates. Infection was repeated 24 h later. ntTRIMCyp, TRIMStop and ntCypAOM cDNAs were transduced with either pMIG (OMK and HeLa cells) or pLPCX (TE671 and Rat2 cells). pLPCX-infected cells were selected in 1 μg ml^−1 puromycin.
as §3

HIV-1 Gag = HIV-1 Gag (Human immunodeficiency virus type 1 group M subtype B, UniProt P12493); details: LexA / B42 fusions, S. cerevisiae EGY48
Description: (A) Yeast two-hybrid system. […] Pairs of fused LexA and B42 expression plasmids were transformed into Saccharomyces cerevisiae strain EGY48. For each transformant, β-galactosidase activity for three colonies is reported in Miller units with the standard deviation. (B) Binding in mammalian cells.
Fusions of these proteins with LexA and/or B42 were constructed, and the interactions between fusion proteins were analyzed using a previously described system (37) in which reporter gene β-galactosidase activity was assessed with a quantitative assay (43).

HIV-1 clone NL4-3 = test: Spreading HIV-1 NL4-3 infection of transduced Jurkat T cells, supernatant reverse transcriptase activity; format: cell-based, human immunodeficiency virus type 1; details: Jurkat T cells transduced with owl monkey TRIMCyp cDNA
From the text: FIG. 13. […] Retroviral vectors were used to transduce human Jurkat T cells with the cDNA encoding owl monkey TRIMCyp. Control cells were transduced with vector lacking the cDNA. Cells were challenged with full infectious HIV-1 clone NL4-3. Supernatant was collected and assessed for viral reverse transcriptase activity (a quantitative measure of the amount of virus produced in the culture).

HIV-1 [6] = tested on: HIV-1; remark: listed apart in the source
Description: as §5, §6, §3

HIV-1 [7] = details: OMKMH-CypA-147 cells, pMIG vector, HIV-1 DsRed vector
Description: as §6, §3

[8] = tested on: TRIM5 orthologues (TRIMCyp, TRIM5αrh, TRIM5αhu, TRIMStop, huTRIMStop); test: Yeast two-hybrid system, β-galactosidase activity: TRIM5 orthologues; format: binding; details: LexA / B42 fusions, S. cerevisiae EGY48
From the text: (§7) FIGS. 9A-9B. TRIMCyp and TRIMStop both bind TRIM5αhu. (A) Yeast two-hybrid system. […] (B) Binding in mammalian cells. TRIM5αhu was fused to GST.

TRIM5αhu = biological target: T1, TRIM5αhu (Homo sapiens, UniProt Q9C035); test: GST pull down from cotransfected 293T cells, Western blotting; format: binding; details: glutathione-Sepharose beads, anti-TRIM5 Western blot
T1 construct: expressed in transfected cells; host or cells: 293T
T1 sequence (Q9C035 whole entry): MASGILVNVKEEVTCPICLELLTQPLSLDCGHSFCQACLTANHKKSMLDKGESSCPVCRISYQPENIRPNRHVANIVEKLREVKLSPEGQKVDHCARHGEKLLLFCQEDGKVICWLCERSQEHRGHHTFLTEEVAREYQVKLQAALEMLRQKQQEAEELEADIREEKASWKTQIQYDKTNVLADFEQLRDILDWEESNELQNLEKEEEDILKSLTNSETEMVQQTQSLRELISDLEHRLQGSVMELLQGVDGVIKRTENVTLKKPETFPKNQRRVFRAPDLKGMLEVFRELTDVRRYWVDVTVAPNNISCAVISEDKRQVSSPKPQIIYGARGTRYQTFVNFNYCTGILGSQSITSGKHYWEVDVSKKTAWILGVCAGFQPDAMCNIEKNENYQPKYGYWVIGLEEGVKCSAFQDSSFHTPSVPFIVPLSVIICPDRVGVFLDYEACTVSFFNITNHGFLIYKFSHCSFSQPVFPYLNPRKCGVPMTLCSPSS
From the text: as §7
To investigate TRIM5:TRIMCyp heterodimerization in mammalian cells, we expressed TRIM5αhu in fusion with glutathione-S-transferase (GST) and transfected 293T cells with either GST or GST-TRIM5αhu. These cells were cotransfected with the LPCX plasmid constructs described above that express TRIMCyp or TRIMStop. […] The blot was also probed with an anti-cyclophilin A antibody, confirming the identity of TRIMCyp (FIG. 9b).

SIVMAC239 = SIVMAC239 infection of TE671 cells transduced with cDNAs; format: cell-based, simian immunodeficiency virus; details: stable TE671 cell lines
Description: as §5, §2, §6, §3

HIV-1 CA = HIV-1 CA (Human immunodeficiency virus type 1 group M subtype B, UniProt P12493); details: detergent-prepared virion cores, affinity chromatography
Description: Retrovirion cores can be liberated from the viral membrane envelope by detergent (54). HIV-1 virion cores were prepared with several different detergents and mixed with recombinant TRIM5 orthologues.

## TRIM5αrh: alpha isoform of rhesus macaque TRIM5 [reference compound]
HIV-1NL-GFP
  HIV-1 cDNA synthesis (Southern blot): inhibited HIV-1 cDNA synthesis
  HIV-1 infection (GFP-positive cells by FACS): inhibited HIV-1 infection of TE671 cells
N-MLV [1]
  N-MLV replication defect (N-tropic restriction by endogenous TRIM5αhu) in cells expressing the construct: about 20 fold

## sanglifehrin
HIV-1 [2]
  HIV-1 infection of OMK cells on drug treatment of target cells: permits HIV-1 to infect OMK cells at an efficiency similar to that of SIV

## TRIM5αhu: human TRIM5α; in Example 3 produced as a GST-fusion protein in 293T cells
CAp30 from B-MLV virions
  association of CAp30 from B-MLV virions: did not associate
CAp30 from N-MLV virions
  association of CAp30 from N-MLV virions: associated
N-MLV [3]
  restrictive effect on the replication of N-MLV: approximately twofold
B-MLV
  effect on B-MLV: no effect
HIV-1 [4]
  restriction of HIV-1 compared with control cells: similar

## TRIMCyp: owl monkey TRIM5-CypA fusion protein, 54-kD, SEQ ID NO:4; ntTRIMCyp is its RNAi-resistant cDNA with silent mutations
HIV-1 [5]
  HIV-1 infection / titre in cells expressing the cDNA: highly resistant to HIV-1 infection
HIV-1 Gag
  interaction with HIV-1 Gag: interacted equally well
HIV-1 clone NL4-3
  protection of human T cells from spreading HIV-1 infection: protected from a spreading, cytopathic HIV-1 infection
HIV-1 [6]; pMIG vector
  HIV-1 restriction in transduced HeLa cells: exhibited the same restriction
HIV-1 [6]; rat fibroblasts (Rat2)
  HIV-1 restriction in non-primate cells: functional
HIV-1NL-GFP
  efficiency of inhibition of HIV-1 replication relative to TRIM5αrh: roughly fivefold more efficiently than TRIM5αrh
  HIV-1 cDNA synthesis (Southern blot): inhibited HIV-1 cDNA synthesis
  HIV-1 infection (GFP-positive cells by FACS): inhibited HIV-1 infection of TE671 cells
HIV-1 [7]
  HIV-1 restriction after transduction of RNAi-resistant cDNA: restricted HIV-1
[8]
  interaction with TRIM5 orthologues: interacted equally well; also recorded: associates with human TRIM5-α
TRIM5αhu
  association with GST-TRIM5αhu: associated with TRIM5αhu
SIVMAC239
  SIVMAC239 infection in cells expressing the cDNA: unaffected
HIV-1 CA
  association of HIV-1 CA with TRIM5 orthologue: associated
N-MLV [1]
  N-MLV replication defect (N-tropic restriction by endogenous TRIM5αhu) in cells expressing the construct: fully abrogated

## TRIM5 lacking the SPRY domain: GST fusion with human TRIM5 lacking the SPRY domain
CAp30 from N-MLV virions
  association of CAp30 from N-MLV virions: did not associate

## O=[As]O[As]=O (centres unmarked) [As2O3]
N-MLV [1]; TE671-TRIM5αrh and TE671-TRIMCyp, As2O3 3 μM
  enhancement of infectivity in cells expressing TRIM5αrh or TRIMCyp: no longer enhanced infectivity
N-MLV [1]; control TE671 cells, As2O3 3 μM
  increase of N-MLV infectivity: ≥ 10 fold

## C/C=C/C[C@@H](C)[C@@H](O)[C@H]1C(=O)N[C@@H](CC)C(=O)N(C)CC(=O)N(C)[C@@H]([C@@H](C)CC)C(=O)N[C@@H](C(C)C)C(=O)N(C)[C@@H](CC(C)C)C(=O)N[C@@H](C)C(=O)N[C@H](C)C(=O)N(C)[C@@H](CC(C)C)C(=O)N(C)[C@@H](CC(C)C)C(=O)N(C)[C@@H](C(C)C)C(=O)N1C [MeIle^4-CsA]
HIV-1 [2]
  HIV-1 infection of OMK cells on drug treatment of target cells: permits HIV-1 to infect OMK cells at an efficiency similar to that of SIV

B1: TRIMStop: construct in which TRIMCyp has been truncated with a stop codon replacing the first codon of the CypA domain (protein)
chain: MASRILVNIKEEVTCPICLELLTEPLSLDCGHSFCQACITANHKKSMPHQGERSCPLCRISYSSENLRPNRHLVNIVERLREVMLSPEEGQKVDHCAHHGEKLVLFCQQDGNVICWLCERSQEHRGHQTFLVEEVAQKYREKLQVALEMMRQKQKDAEKLEADVREEQASWKIQIQNDKTNIMAEFKKRRDILDCEESKELQNLEKEEKNILKRLVQSENDMVLQTQSVRVLISDLEHRLQGSVMELLQGVDGVIKRIEKVTLQNPKTFLNEKRRIFQTPDLKGTLQVFKEPTEVQRYWDAAAWDLVASA
HIV-1 [5]
  HIV-1 infection / titre in cells expressing the cDNA: no effect on HIV-1 titre
HIV-1 Gag
  interaction with HIV-1 Gag: not able to interact with Gag
[8]
  interaction with TRIM5 orthologues: as competent as TRIMCyp
TRIM5αhu
  association with GST-TRIM5αhu: associated with TRIM5αhu
N-MLV [1]
  N-MLV replication defect (N-tropic restriction by endogenous TRIM5αhu) in cells expressing the construct: did not affect the capacity of TE671 cells to restrict N-MLV replication
